Data: patent US6653478B2, “Substituted benzimidazol-2-ones as vasopressin receptor antagonists and neuropeptide Y modulators” (Ortho-McNeil Pharmaceutical, Inc., priority 2000, dated 2003)

How the values were obtained:
[1] = target: human V1a receptor (Homo sapiens, UniProt P37288); assay: V1a binding assay (3H-AVP displacement, HEK-293 membranes); set-up: expressed in transfected cells; host or cells: HEK-293 (membranes); settings: for inhibition at 1 µM: 1.0 μM compound, read-out: V1a@1.0, % Inh; for inhibition at 0.1 µM: 0.1 μM compound, read-out: V1a % Inh @0.1
Chain of human V1a receptor (P37288 whole entry): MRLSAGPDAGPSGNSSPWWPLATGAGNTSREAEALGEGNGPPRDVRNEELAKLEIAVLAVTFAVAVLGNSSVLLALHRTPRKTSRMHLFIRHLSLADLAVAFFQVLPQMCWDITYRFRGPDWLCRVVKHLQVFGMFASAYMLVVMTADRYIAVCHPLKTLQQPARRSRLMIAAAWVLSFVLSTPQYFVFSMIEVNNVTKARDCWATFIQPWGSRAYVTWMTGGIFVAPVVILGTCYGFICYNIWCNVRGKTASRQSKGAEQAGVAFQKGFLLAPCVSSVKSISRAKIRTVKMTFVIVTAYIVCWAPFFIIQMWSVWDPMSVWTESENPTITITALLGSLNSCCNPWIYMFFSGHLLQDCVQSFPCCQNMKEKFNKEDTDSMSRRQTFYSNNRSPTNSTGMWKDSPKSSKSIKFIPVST
In short: (§1)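 Each well: membranes, test compound (from 10% DMSO working stock), 3H-AVP. Buffer pH 7.5 with 0.1% BSA and protease inhibitors; 1 h, room temperature. Non-specific binding: 1.25 μM AVP. Filter, wash, count.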

[2] = target: T1, NPY2 receptors (Homo sapiens, UniProt P49146); assay: Neuropeptide Y receptor binding assay (125I-PYY, KAN-TS cell membranes); settings: 10 μM compound; read-out: NPY-2@10, % Inh
T1 construct: Cell Membranes from KAN-TS cells having NPY2 receptors; endogenous in cells; host or cells: KAN-TS cells (membranes)
T1 sequence (P49146 1-381): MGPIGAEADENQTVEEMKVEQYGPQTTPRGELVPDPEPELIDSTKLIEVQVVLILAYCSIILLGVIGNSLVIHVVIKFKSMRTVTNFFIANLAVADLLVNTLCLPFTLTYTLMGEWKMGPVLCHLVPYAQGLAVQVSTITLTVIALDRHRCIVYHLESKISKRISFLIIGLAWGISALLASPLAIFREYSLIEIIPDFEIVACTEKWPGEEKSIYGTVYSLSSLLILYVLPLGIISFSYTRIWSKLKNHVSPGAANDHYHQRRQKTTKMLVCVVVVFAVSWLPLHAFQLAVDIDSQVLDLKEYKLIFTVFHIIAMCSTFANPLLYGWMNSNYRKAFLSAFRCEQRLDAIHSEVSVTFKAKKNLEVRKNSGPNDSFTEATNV
Experimental: Neuropeptide Y Receptor Binding Assay
Load 96-well RIA racks with RIA vials (Sarstedt, cat. #73.1055)
Prepare membranes—use 2×15 cm confluent plates/96-well assay plate
Add 14 mls Homogenization buffer/cell pellet
Homogenize at high speed for 15 seconds
Transfer to 15 ml conical tube and spin 5′ at 4° C. at setting 3 in RT6000 centrifuge
Transfer supernatant to 30 ml Corex tube
Balance and spin 25′ at 15,000 rpm at 4° C.
Resuspend pellet in 10 mls Binding buffer
Homogenize at high speed for 15 sec.
Bring volume up to 50 mls in Binding buffer (25 mls/2×96-well plates)
Keep on ice until use or freeze in aliquots (2 plates/tube) in −70° C.
Prepare ^125I-PYY (for 2×96-well compound plates)
Dilute 50 uCi ^125I-PYY in 1 ml H2O
Add 0.4 ml 10% BSA to 20 ml Binding buffer
Add 150 μl ^125I-PYY, mix well
NSB (1 μM PYY final conc.): 40 μl PYY (100 μM stock)+60 μl 30% DMSO in HEPES=40 μM PYY—add 5 μl/well
Total Binding: Add 5 μl/well of Compound Diluent
Add 5 μl compound (final conc. @10 μM)
Incubate at R.T. for 1 hr.
Spin plates for 10′ at setting 9 in RT6000 centrifuge
Aspirate supernatant from tubes, add 300 μl PBS and aspirate again.
After plates are washed and aspirated, put individual tubes in 12×75 mm polypropylene carrier tubes. Count on gamma counter.

[3] = target: T2, human V1b receptor (Homo sapiens, UniProt P47901); assay: V1b binding assay (3H-AVP displacement, HEK-293 membranes); set-up: expressed in transfected cells; host or cells: HEK-293 (membranes); settings: 10 μM compound; read-out: V1b % Inh @10
T2 sequence (P47901 1-424): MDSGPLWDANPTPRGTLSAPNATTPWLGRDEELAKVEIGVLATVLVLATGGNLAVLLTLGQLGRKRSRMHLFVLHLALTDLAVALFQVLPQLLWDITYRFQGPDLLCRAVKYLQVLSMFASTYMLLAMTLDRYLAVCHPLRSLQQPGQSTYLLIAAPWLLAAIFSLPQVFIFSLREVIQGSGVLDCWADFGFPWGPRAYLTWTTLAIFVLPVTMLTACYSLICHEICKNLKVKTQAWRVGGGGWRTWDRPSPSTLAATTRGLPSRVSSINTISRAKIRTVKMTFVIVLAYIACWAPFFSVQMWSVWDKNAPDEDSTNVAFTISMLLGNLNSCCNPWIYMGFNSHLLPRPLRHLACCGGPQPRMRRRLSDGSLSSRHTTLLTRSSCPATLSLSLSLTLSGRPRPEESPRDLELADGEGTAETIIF
In short: as §1

[4] = target: human V2 receptor (Homo sapiens, UniProt P30518); assay: V2 binding assay (3H-AVP displacement, HEK-293 membranes); set-up: expressed in transfected cells; host or cells: HEK-293 (membranes); settings: 1.0 μM compound; read-out: V2@1.0, % Inh
Chain of human V2 receptor (P30518 whole entry): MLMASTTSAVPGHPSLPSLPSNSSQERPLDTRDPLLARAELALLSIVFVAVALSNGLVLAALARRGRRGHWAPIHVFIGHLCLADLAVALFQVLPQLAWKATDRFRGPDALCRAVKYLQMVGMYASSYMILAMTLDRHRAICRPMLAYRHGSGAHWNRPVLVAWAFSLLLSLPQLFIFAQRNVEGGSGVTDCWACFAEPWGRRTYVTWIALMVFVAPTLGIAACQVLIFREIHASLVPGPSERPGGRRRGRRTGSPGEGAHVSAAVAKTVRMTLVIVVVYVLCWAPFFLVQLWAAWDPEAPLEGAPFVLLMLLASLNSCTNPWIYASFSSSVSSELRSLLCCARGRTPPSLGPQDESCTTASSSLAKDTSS
In short: as §1

Row | SMILES | IC50 [1] [nM] | inhibition at 10 µM [2] [%] | inhibition at 10 µM [3] [%] | inhibition at 1 µM [4] [%] | inhibition at 1 µM [1] [%] | inhibition at 0.1 µM [1] [%]
1 | O=c1[nH]c2ccccc2n1C1CCN(C(=S)NCc2cccnc2)CC1 [Compound 29] | 1900 | 11 | 0 | 2 |  | 
2 | CC(Cc1ccc(Cl)cc1)NC(=S)N1CCC(n2c(=O)[nH]c3ccccc32)CC1 (stereo not drawn) [Compound 30] | 390 | 23 | 0 | 9 |  | 
3 | O=c1[nH]c2ccccc2n1C1CCN(C(=S)NCCc2ccc([N+](=O)[O-])cc2)CC1 [Compound 31] |  | 17 | 5 | 15 | 19 | 
4 | O=c1[nH]c2ccccc2n1C1CCN(C(=S)NC(Cc2ccccc2)c2ccccc2)CC1 (stereo not drawn) [Compound 32] |  | 26 | 4 | 9 | 42 | 
5 | O=c1[nH]c2ccccc2n1C1CCN(C(=S)NC2c3ccccc3-c3ccccc32)CC1 [Compound 33] |  | 13 | 9 | 0 | 33 | 
6 | O=c1[nH]c2ccccc2n1C1CCN(C(=S)NC(c2ccccc2)c2ccc(Cl)cc2)CC1 (stereo not drawn) [Compound 34] |  | 22 | 13 | 21 | 42 | 
7 | CCN(CC)CCn1c(=O)n(C2CCN(C(=S)NC(C)c3ccc(F)cc3)CC2)c2ccccc21 (stereo not drawn) [Compound 36, 1-(N1-Piperidinocarbothioyl-(4-fluoro-[…]-methylbenzylamino)-4-yl)-3-(2-diethyaminoethyl)-1,3-dihydrobenzimidazol-2-one] |  | 16 | 20 | 0 | 45 | 
8 | O=c1n(Cc2ccccc2)c2ccccc2n1C1CCN(C(=S)NC(c2ccccc2)c2ccccc2)CC1 [Compound 37, 1-(N1-Piperidinocarbothioyldiphenylmethylamino-4-yl)-3-benzyl-1,3-dihydrobenzimidazol benzimidazol-2-one] |  | 0 | 8 | 2 | 5 | 
9 | O=c1[nH]c2ccccc2n1C1CCN(C(=S)NCCCc2ccccc2)CC1 [Compound 38] |  | 7 | 0 | 9 | 25 | 
10 | O=c1n(Cc2ccccc2)c2ccccc2n1C1CCN(C(=S)NCCc2ccc(Cl)cc2)CC1 [Compound 39, 1-(N1-Piperidinocarbothioyl-2-(4-chlorophenyl)ethylamino-4-yl)-3-benzyl-1,3-dihydrobenzimidazol-2-one] |  | 18 | 7 | 0 | 17 | 
11 | COC(=O)C(Cc1ccccc1)NC(=S)N1CCC(n2c(=O)[nH]c3ccccc32)CC1 (stereo not drawn) [Compound 40] | 190 | 17 | 11 | 0 |  | 
12 | CCN(CC)CCn1c(=O)n(C2CCN(C(=S)NC(Cc3ccccc3)C(=O)O)CC2)c2ccccc21 [Compound 43, 1-(N1-Piperidinocarbothioyl-(2-phenyl-1-L-carboxy)amino-4-yl)-3-(2-diethyaminoethyl)-1,3-dihydrobenzimidazol-2-one] |  | 13 | 16 | 10 | 39 | 
13 | CC(=O)NCCNC(=O)C(Cc1ccccc1)NC(=S)N1CCC(n2c(=O)[nH]c3ccccc32)CC1 (stereo not drawn) [Compound 44] |  | 9 | 24 | 2 | 37 | 
14 | CC(C)(C)OC(=O)NCCNC(=O)C(Cc1ccccc1)NC(=S)N1CCC(n2c(=O)[nH]c3ccccc32)CC1 (stereo not drawn) [Compound 46] |  | 16 | 26 | 0 |  | 8
15 | NC(=O)C(Cc1ccccc1)NC(=S)N1CCC(n2c(=O)[nH]c3ccccc32)CC1 (stereo not drawn) [Compound 47] |  | 10 | 0 | 14 | 45 | 
16 | Cc1ccccc1NC(=O)N1CCC(n2c(=O)[nH]c3ccccc32)CC1 [Compound 48] |  | 22 | 3 | 0 | 2 | 
17 | O=C(Nc1ccccc1-c1ccccc1)N1CCC(n2c(=O)[nH]c3ccccc32)CC1 [Compound 49] |  | 12 | 18 | 0 | 63 | 
18 | COC(=O)[C@@H](Cc1c[nH]c2ccccc12)NC(=S)N1CCC(n2c(=O)[nH]c3ccccc32)CC1 [Compound 50] |  | 16 | 15 | 0 | 8 | 
19 | COC(=O)[C@@H](Cc1ccccc1)NC(=S)N1CCC(n2c(=O)[nH]c3ccccc32)CC1 [Compound 51] |  | 2 | 19 | 1 | 25 | 
20 | O=C1c2ccccc2C(=O)N1CCCn1c(=O)n(C2CCN(C(=S)NC(c3ccccc3)c3ccccc3)CC2)c2ccccc21 [Compound 54, 1-[(N1-Piperidinocarbothioyldiphenylmethylamino)-4-yl]-3-(3-N-phthalimidopropyl)-1,3-dihydrobenzimidazol-2-one] |  | 4 | 18 | 0 | 47 | 
21 | COC(=O)C(Cc1ccccc1)NC(=S)N1CCC(n2c(=O)n(CCCN3C(=O)c4ccccc4C3=O)c3ccccc32)CC1 (stereo not drawn) [Compound 56] | 360 | 22 | 19 | 3 |  | 
22 | CCOC(=O)CCn1c(=O)n(C2CCN(C(=S)NC(c3ccccc3)c3ccccc3)CC2)c2ccccc21 [Compound 60, 1-[(N1-Piperidinocarbothioyldiphenylmethylamino)-4-yl]-3-(2-carboethoxyethyl)-1,3-dihydro-benzimidazol-2-one] |  | 35 | 19 | 0 | 49 | 
23 | O=C(O)CCn1c(=O)n(C2CCN(C(=S)NC(c3ccccc3)c3ccccc3)CC2)c2ccccc21 [Compound 61, 1-[(N1-Piperidinocarbothioyldiphenylmethylamino)-4-yl]-3-(2-carboxyethyl)-1,3-dihydrobenzimidazol-2-one] |  | 90 | 22 | 0 | 17 | 
24 | COc1ccc(C(NC(=S)N2CCC(n3c(=O)[nH]c4ccccc43)CC2)c2ccc(OC)cc2)cc1 [Compound 66, 1-[(N1-Piperidinocarbothioyl-1,1-di(p-anisyl)methylamino)-4-yl]-1,3-dihydrobenzimidazol-2-one] |  | 21 | 11 | 0 |  | 15
